We go through eight molecules from patent US7846434B2, “Materials and methods for improved immunoglycoproteins” (Trubion Pharmaceuticals, Inc., priority 2006, dated 2010).

Assay [1] deals with CD16 (Fcγ RIII). Nature of the assay: Binding of SMIP bound on WIL2-S cells to soluble FcγR-MIg fusion (CD16), flow cytometry. For orientation: Flow cytometry measures light scatter and fluorescence of single cells or particles in a stream.
For assay [2], the system named is BJAB B cells. The assay is described as follows: ADCC, 51Cr-labeled BJAB B cells with human PBMC effectors. The assay is classed as cell-based. The conditions noted are these: culture media containing 200 μM DMJ, 10 μM kifenunsine or 200 μM castanospermine. Here is the method: To determine the ADCC activity of purified TRU-016, labeled BJAB B cells were used as targets and human peripheral blood mononuclear cells (PBMC) as effector cells. BJAB B cells (10^7 cells) were labeled with 500 μCi/mL ^51Cr sodium chromate for 2 hours at 37° C. in IMDM/10% FBS. PBMCs were isolated from heparinized, human whole blood by fractionation over Lymphocyte Separation Media (LSM, ICN Biomedical) gradients. Reagent samples were added to RPMI media with 10% FBS and serial dilutions of each reagent were prepared. The ^51Cr labeled BJAB were added at 2×10^4 cells/well. The PBMCs were then added at 5×10^5 cells/well for a final ratio of 25:1 effectors (PBMC):targets (BJAB). Reactions were set up in quadruplicate wells of a 96 well plate. Reactions were allowed to proceed for 6 hours at 37° C. in 5% CO2 prior to harvesting and counting. CPM released was measured on a Packard TopCounNXT from 50 μl dried culture supernatant. Percent specific killing was calculated by subtracting (cpm [mean of quadruplicate samples] of sample−cpm spontaneous release)/(cpm maximal release−cpm spontaneous release)×100, and data were plotted as % specific killing versus TRU-016 concentration.

The test system of assay [3] is Ramos cells. The assay is described as follows: Ramos tumor model in nude mice. Conditions: for Median Survival Time: 200 μg i.v. on days 0, 2, 4, 6 and 8. The assay is classed as in vivo. Here is the method:
Nude mice are administered 5×10^6 Ramos cells subcutaneously on day 0 and injected intravenously with 200 μg control human IgG or TRU-016 test protein produced by CHO cells treated with 200 μM DMJ, 10 μM kifenunsine or 200 μM castanospermine on days 0, 2, 4, 6, and 8. Mice typically develop tumors within 6 days and die shortly thereafter. Tumors are measured three times weekly with digital calipers and LabCat software, and tumor volume is calculated as […]. Body weight is also determined once a week.
Mice are sacrificed when the tumor reaches 1500 mm^3 in size (1200 mm^3 on Fridays). Mice are also sacrificed if ulceration of a tumor occurs, the tumor inhibits the mobility of animal, or if weight loss equals or exceeds 20%.

Assay [4] has as its system Ramos B cells. Nature of the assay: CDC, Ramos B cells with human serum, propidium iodide. Format: cell-based. Conditions: TRU-016 from CHO cells cultured with 200 μM DMJ, 10 μM kifenunsine or 200 μM castanospermine. Here is the method:
To determine the CDC activity of TRU-016 purified protein produced according to Example 2, Ramos B cells were suspended in Iscoves (Gibco/Invitrogen, Grand Island, N.Y.) at 5×10^5 cells/well in 75 μl. TRU-016 (75 μl) were added to the cells at twice the concentrations indicated. Binding reactions were allowed to proceed for 45 minutes prior to centrifugation and washing in serum-free Iscoves. Cells were resuspended in Iscoves with human serum (containing complement) at various concentrations. The cells were incubated 60 minutes at 37° C. Cells were washed by centrifugation and resuspended in staining media with 0.5 μg/ml propidium iodide. Samples were incubated 15 minutes at room temperature in the dark prior to analysis by flow cytometry using a FACsCalibur and CellQuest software (Becton Dickinson).

Assay [5] relates to CD37-expressing Daudi cancer B-cell line. Nature of the assay: ADCC, 51Cr-labeled Daudi target cells with human PBL effector cells. Conditions: for EC50: CHO-K1 produced; for Fold Improvement: EC50 vs control. Format: cell-based. The method, then:
TRU-016 produced as described in Example 8 is incubated with the CD37-expressing Daudi cancer B-cell line in conjunction with primary human peripheral blood lymphocytes (PBL's) effector cells to assess ADCC activity.
Daudi target cells (5×10^6) are added to a 15 ml conical tube and then centrifuged at 250×g for 5 minutes at 20° C. and the supernatant removed. The cell pellet is resuspended by the addition of 0.3 mCi Chromium-51 (^51Cr, GE Healthcare, CJ51). The cells are incubated for 75 minutes at 37° C. with 5% CO2, allowing the cells to incorporate the radioactive isotope. The cells are then washed three times to remove any unincorporated ^51 Cr. This is done by adding 10 mL of complete media—IMDM (Gibco) with 10% FBS (Gibco)—to the tube, centrifuging at 250×g for 5 minutes at 20° C. followed by removal of supernatant. The final resuspension is in 11.5 mL of complete media. TRU-016 is diluted in complete media, at concentrations that are able to generate maximal to background levels of cell lysis (500 ng/mL-0.005 ng/mL). These titrations are plated out, 50 μL/well, in a round bottom 96 well plate. The ^51Cr labeled target cells are added to the dose titrations of TRU-016 at 50 μL/well and the control wells (control media without TRU-016). PBL's are isolated from fresh heparinized whole blood by density gradient centrifugation using Lymphocyte Separation Media as per protocol (LSM, MP Biomedical, 50494/36427). […] The assay is incubated for 4.5-5 hours at 37° C., 5% CO2. The effector cells lyse the target cells relative to the TRU-016 concentration, releasing a proportional amount of ^51Cr into the assay supernatant. Following the incubation the plate is centrifuged at 250×g for 3 minutes at 20° C. A 25 μL volume of cell-free supernatant is removed from all wells to a scintillation plate (Perkin Elmer 6005185) and dried overnight. The amount of ^51Cr isotope in each well of the scintillation plate is measured using a Topcount plate reader (Perkin Elmer, C9904VO). The data are expressed as percent of specific release. Specific release is calculated as: (Sample value−Spontaneous value)/(Maximum value−Spontaneous value)*100% Spontaneous=amount of ^51Cr released from target cell only Maximum release=amount of ^51Cr released from targets treated with detergent lysing agent Background Control=amount of ^51Cr released from target cells+effector cells(No TRU-016)
A dose response is generated and fit to a 4-parameter logistic curve using SoftMax Pro software (Molecular Devices, ver 5.0.1). Titrations of TRU-016 are utilized to create dose response curves of test and reference material for comparison. The EC50 values for the treated articles are compared to the untreated control (no CS) to determine the percent increase in ADCC activity.

The subject of assay [6] is CD16. The assay is described as follows: CD16 assays on sera of mice administered TRU-016. The conditions noted are these: sera at 48, 72, 96 and 192 hours after administration of carbohydrate-modified TRU-016. The assay is classed as binding.
The target in assay [7] is T1, CD37 cell surface receptor (Homo sapiens, UniProt P11049).
T1 construct: Human PBMCs are isolated over LSM density gradients and incubated with unconjugated TRU-016; endogenous in cells; host or cells: human PBMCs, gated for CD19+ B lymphocytes
T1 sequence (P11049 1-281): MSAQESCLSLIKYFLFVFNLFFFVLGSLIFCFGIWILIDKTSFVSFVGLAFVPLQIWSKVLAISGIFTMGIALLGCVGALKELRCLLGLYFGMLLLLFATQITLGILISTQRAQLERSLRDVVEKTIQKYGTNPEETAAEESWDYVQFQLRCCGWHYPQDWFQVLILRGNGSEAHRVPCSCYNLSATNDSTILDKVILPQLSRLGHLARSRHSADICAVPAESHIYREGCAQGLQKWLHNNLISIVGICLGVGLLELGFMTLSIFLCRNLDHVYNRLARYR
The assay is described as follows: TRU-016 binding to human PBMC B lymphocytes by two-color flow cytometry. Here is the method: Experiments may be performed to confirm that the binding specificity of the parent antibody to the CD37 cell surface receptor is preserved in TRU-016. Human PBMCs are isolated over LSM density gradients and incubated with unconjugated TRU-016 and PE-conjugated anti-human CD19. Cells are washed and incubated with 1:100 FITC GAH IgG (Fc specific) for 45 minutes on ice. Cells are washed and analyzed by two-color flow cytometry on a FACsCalibur instrument using Cell Quest software. Cells are gated for B lymphocytes or non-B lymphocytes by CD19 staining.

Where [8] appears, read: CHO cells cultured with modifier at 50 or 250 μM.
[9] abbreviates: TRU-016 from CHO cells treated with 200 μM DMJ, 10 μM kifenunsine or 200 μM castanospermine.

The EC50 is the concentration at which the effect is half-maximal. Lower therefore signals a more potent agent.

In the case of `OC[C@H]1NC[C@@H](O)[C@@H](O)[C@@H]1O` [DMJ, Deoxymannojirimycin], the “CD16 binding of TRU-016 supernatant (mean fluorescence intensity)” value (from here on “CD16 binding of TRU-016 supernatant”) in assay [1] (setting [8]) was “increased”. Moreover, the “ADCC of TRU-016 purified protein (% specific killing)” value in assay [2] is “improved”.
Take “CS TRU-016: TRU-016 produced by CHO cells treated with 200 μM castanospermine”: in assay [3], the “Median Survival Time” value amounted to 13 days.
For the molecule `OC1CN2CCC(O)C2C(O)C1O` (stereo not shown) [6,8a-diepicastanospermine], in assay [1] (setting [8]), the “CD16 binding of TRU-016 supernatant” value is on record as “no effect”.
Consider “TRU-016: [G28-1 scFv VH11S (SSC-P)H WCH2 WCH3] recombinant single chain protein (SMIP) that binds to the CD37 antigen; SEQ ID NO: 2”, for which, in assay [4], the “CDC versus protein produced by untreated CHO cells” value is given as “similar”. Moreover, the “ADCC activity relative to untreated TRU-016” value in assay [5] (treated with CS over a range of 100 μM-800 μM final concentration) is reported as “significantly increased”. In assay [6], the “CD16 binding activity of sera containing TRU-016” value is given as “retained its increased CD16 binding activity”. In assay [3] (setting [9]), the mean survival time result was “increase mean survival time” and the tumor volume result is “reduce tumor volume”. In assay [7] (CD19 positive gate), the “TRU-016 concentration at saturation of FITC signal on B lymphocytes” value is recorded as “approximately 1 μg/mL” and the “mean fluorescence intensity (MFI) at saturation” value is listed as around 1000. For the same molecule, the “staining of the non-B lymphocyte population” value in assay [7] (non-B lymphocyte gate) is given as “detectable, but very low”.
Regarding `O[C@H]1[C@H]2[C@H](O)CCCN2C[C@H]1O` [swainsonine, Swainsonine], the “CD16 binding of TRU-016 supernatant” value in assay [1] (setting [8]) is “no effect”.
On to `O=C1N[C@@H]2[C@@H](O)[C@@H](O)[C@H](O)[C@@H](CO)N2C1=O` [kifunensine, Kifunensine], for which the “CD16 binding of TRU-016 supernatant” value in assay [1] (CHO cells cultured with kifunensine 0, 0.5, 1, 3, 5 or 10 μM) is recorded as “greatly increased”. The “ADCC of TRU-016 purified protein (% specific killing)” value in assay [2] is on record as “improved”.

B1: Kifu TRU-016: TRU-016 produced by CHO cells treated with 10 μM kifenunsine (antibody, chains of the INN, looked up, V domains shown)
VH: EVQLVQSGAEVKKPGESLKISCKGSGYSFTGYNMNWVRQMPGKGLEWMGNIDPYYGGTTYNRKFKGQVTISADKSISTAYLQWSSLKASDTAMYYCARSVGPFDSWGQGTLVTVSS
VL: EIVLTQSPATLSLSPGERATLSCRASENVYSYLAWYQQKPGQAPRLLIYFAKTLAEGIPARFSGSGSGTDFTLTISSLEPEDFAVYYCQHHSDNPWTFGQGTKVEIK
modifications: altered glycosylation (kifunensine-treated CHO)
notes: TRU-016 produced by CHO cells treated with 10 μM kifenunsine
As to B1, in assay [3], the “Median Survival Time” value is 10 days.

B2: None: CHO-K1 produced TRU-016 cultured in the absence of CS (untreated control) (antibody, chains of the INN, looked up, V domains shown)
VH: B1 VH
VL: B1 VL
modifications: SMIP
As for B2, the “EC50” value in assay [5] (F/F (low) Donor) came to 3.25 ng/mL; in assay [5] (F/V (low/high) Donor), 6.31 ng/mL; in assay [5] (V/V (high) Donor), 1.24 ng/mL. In addition, the “Fold Improvement” value in assay [5] (F/F (low) Donor), in assay [5] (F/V (low/high) Donor) and in assay [5] (V/V (high) Donor) was 1.0 fold in each case.
